Measured values: article doi:10.1101/2022.12.19.520966v1 (biorxiv, 2022)
Numbering of substitutions follows the chain as printed.

What was measured:
Test in all cases: HTRF IP1 accumulation
Type in all cases: cell-based
[1] = molecular target: T1, T1R2/T1R3 (human sweet taste receptor) (Homo sapiens, UniProt Q7RTX0+Q8TE23); conditions: agonist; Galpha16gus44 co-transfected; 0.05 M LiCl, 5 min exposure; unreliable
T1 sequence (Q8TE23 20-839): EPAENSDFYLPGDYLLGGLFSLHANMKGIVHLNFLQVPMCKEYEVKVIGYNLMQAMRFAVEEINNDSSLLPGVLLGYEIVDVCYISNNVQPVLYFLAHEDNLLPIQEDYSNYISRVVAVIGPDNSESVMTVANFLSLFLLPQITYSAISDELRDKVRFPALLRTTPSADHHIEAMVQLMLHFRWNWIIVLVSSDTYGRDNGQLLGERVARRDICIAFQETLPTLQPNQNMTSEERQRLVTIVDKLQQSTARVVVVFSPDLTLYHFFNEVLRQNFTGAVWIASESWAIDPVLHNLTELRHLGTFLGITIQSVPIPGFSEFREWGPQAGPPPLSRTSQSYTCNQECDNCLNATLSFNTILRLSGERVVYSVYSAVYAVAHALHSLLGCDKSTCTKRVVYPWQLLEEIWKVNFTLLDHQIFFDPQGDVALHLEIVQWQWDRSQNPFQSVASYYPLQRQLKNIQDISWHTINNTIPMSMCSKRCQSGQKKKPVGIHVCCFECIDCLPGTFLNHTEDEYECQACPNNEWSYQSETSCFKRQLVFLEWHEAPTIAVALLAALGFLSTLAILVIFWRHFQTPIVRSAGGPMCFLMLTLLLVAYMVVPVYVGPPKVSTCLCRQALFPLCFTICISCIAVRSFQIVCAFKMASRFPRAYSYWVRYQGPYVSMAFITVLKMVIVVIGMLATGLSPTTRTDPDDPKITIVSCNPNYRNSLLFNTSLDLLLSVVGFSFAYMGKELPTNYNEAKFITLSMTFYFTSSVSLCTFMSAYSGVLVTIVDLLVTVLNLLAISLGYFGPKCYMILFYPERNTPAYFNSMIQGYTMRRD
T1 sequence (Q7RTX0 21-852): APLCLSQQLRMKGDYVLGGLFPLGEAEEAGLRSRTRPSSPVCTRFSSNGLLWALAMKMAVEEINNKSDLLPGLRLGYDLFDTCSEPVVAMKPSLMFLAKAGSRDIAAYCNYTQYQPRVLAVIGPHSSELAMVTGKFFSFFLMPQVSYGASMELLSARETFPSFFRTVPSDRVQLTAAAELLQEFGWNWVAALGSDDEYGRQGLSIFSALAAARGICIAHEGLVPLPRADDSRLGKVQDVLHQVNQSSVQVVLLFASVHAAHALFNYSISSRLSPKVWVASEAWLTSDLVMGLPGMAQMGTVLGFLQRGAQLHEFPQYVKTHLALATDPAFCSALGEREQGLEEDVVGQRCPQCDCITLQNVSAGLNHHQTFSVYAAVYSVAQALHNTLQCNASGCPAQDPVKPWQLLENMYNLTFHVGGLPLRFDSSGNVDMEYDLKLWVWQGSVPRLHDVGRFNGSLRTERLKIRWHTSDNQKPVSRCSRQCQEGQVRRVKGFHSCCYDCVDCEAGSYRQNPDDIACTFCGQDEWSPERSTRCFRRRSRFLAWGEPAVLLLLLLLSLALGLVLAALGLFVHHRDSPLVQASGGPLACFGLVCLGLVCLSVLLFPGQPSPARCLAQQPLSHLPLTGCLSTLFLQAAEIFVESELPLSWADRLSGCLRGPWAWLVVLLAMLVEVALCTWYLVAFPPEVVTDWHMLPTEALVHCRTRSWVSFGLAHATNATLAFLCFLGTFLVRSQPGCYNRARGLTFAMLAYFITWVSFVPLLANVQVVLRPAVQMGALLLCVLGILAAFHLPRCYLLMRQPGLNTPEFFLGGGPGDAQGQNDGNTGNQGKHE

[2] = molecular target: T1, T1R2/T1R3 (human sweet taste receptor); conditions: agonist; Galpha16gus44 co-transfected; 0.05 M LiCl, 5 min exposure
[3] = molecular target: T2, T1R2/T1R3 (human sweet taste receptor) (Homo sapiens, UniProt Q7RTX0+Q8TE23, Q8TE23:R317G/Q8TE23:I486V); conditions: agonist; Galpha16gus44 co-transfected; 0.05 M LiCl, 5 min exposure
T2 sequence (Q8TE23 20-839 R317G/I486V): T1 sequence (Q8TE23 20-839) with R298G, I467V
T2 sequence (Q7RTX0 21-852): T1 sequence (Q7RTX0 21-852)

## OC[C@H]1OC(O)[C@H](O)[C@@H](O)[C@@H]1O (stereo partly drawn) [D-glucose]
[1]
  Emax: 100%

## OC[C@@H]1OC(O)[C@@H](O)[C@H](O)[C@H]1O (stereo partly drawn) [L-glucose]
[2]
  EC50: 2 mM
[3]
  EC50: ~15 mM
